Experimental findings from patent publication US7019015B2, “Fungicide for plants” (Valent BioSciences, Inc., priority 2003, dated 2006) are described below.

The subject of data set [1] is Phaseolus vulgaris (Bush bean cv. Blue Lake 274) leaves. The experiment in a line: Detached bean leaf bioassay, phytotoxicity rating. The class given is in vivo. The procedure:
Compound solution: Compound solutions were prepared by diluting compound stock solutions (1.0% w/v compound in DMSO) to 200 ppm with 0.01% w/v Triton X-100. Plant material: Middle trifoliate leaves of greenhouse grown Phaseolus vulgaris (Bush bean cv. Blue Lake 274) were excised and placed on a plastic grid above a tray containing moist towels. Treatment method: One half of the adaxial surface of the leaf was treated with the compound solution (100 :L) using a 3 cm Bacti Cell Spreader. A blank consisted of 0.01% w/v Triton X-100. A commercial fungicide control (200 ppm diluted with water) consisted of Scala. After the solutions dried, the trays containing the leaves were covered and held one day in a growth chamber (22C). The adaxial surfaces of the leaves were then inoculated with 5–60 :L droplets of Botrytis cinerea spore solution. Phytotoxicity ratings: Phytotoxicity was rated as 0=no phytotoxicity, 1=slight phytotoxicity, 2=moderate phytotoxicity, or 3=excessive phytotoxicity (Table 2).

Data set [2] has as its system Botrytis cinerea. The experiment in a line: Detached bean leaf bioassay, fungal control. The class given is in vivo. As to conditions: 200 ppm on detached bean leaf; 100 minus percent necrotic area, three days after inoculation. The procedure:
Detached Bean Leaf Bioassay
Compound solution: Compound solutions were prepared by diluting compound stock solutions (1.0% w/v compound in DMSO) to 200 ppm with 0.01% w/v Triton X-100.
Spore solution preparation: Botrytis cinerea spores were taken from 6-week-old cultures grown at 22C on full strength potato dextrous agar (PDA) plates and harvested in 1:16 frozen orange juice concentrate:water. Botrytis cinerea spore solutions were prepared by diluting spore cultures to 5×10^4 spores/mL with 1:16 frozen orange juice concentrate:water.
Plant material: Middle trifoliate leaves of greenhouse grown Phaseolus vulgaris (Bush bean cv. Blue Lake 274) were excised and placed on a plastic grid above a tray containing moist towels.
Treatment method: One half of the adaxial surface of the leaf was treated with the compound solution (100 :L) using a 3 cm Bacti Cell Spreader. A blank consisted of 0.01% w/v Triton X-100. A commercial fungicide control (200 ppm diluted with water) consisted of Scala. […]
Fungal control rating: Three days after inoculation with Botrytis, the percent necrotic area under the inoculation droplet was determined. Since the areas under the blank (0.01% w/v Triton X-100) were 100% infected, fungal control was expressed as 100 minus the percent necrotic area, and thus 0% infected is 100% fungal control (n=3 leaves/compound, 5 inoculation droplets/leaf, Table 2).

In another data set the test system is Mycosphaerella fijiensis. Briefly: Contact evaluation (microtiter plate), Mycosphaerella fijiensis. In kind it is cell-based. The procedure: (§1) Compound solution: Contact evaluations were conducted to determine the anti-fungal activity of each compound against Botrytis cinerea, Sclerotinia sclerotiorum, Pythium aphanidermatum, Rhizoctonia solani, Cercospora arachidicola, Mycosphaerella fijiensis, and Monilinia laxa. Five milligrams of each compound were dissolved in 0.5 milliliter of DMSO for a compound stock solution of 1.0% w/v. Compound stock solutions were serial diluted with DMSO to 20, 10, and 2 ppm final well concentration. Fungi preparation: Botrytis cinerea spores were taken from 6-week-old cultures grown at 22C on full strength potato dextrous agar (PDA) plates. Sclerotinia sclerotiorum, Pythium aphanidermatum, Rhizoctonia solani, and Monilinia laxa mycelia were taken from 4- to 10-day-old shake flask cultures grown at room temperature on full strength potato dextrous broth (PDB). Cercospora arachidicola mycelia were taken from 10- to 14-day-old shake flask cultures grown at room temperature on a full strength PDB amended with peanut oil. Mycosphaerella fijiensis mycelia were taken from 10- to 14-day-old shake flask cultures grown at room temperature on V8 juice broth. Sclerotinia sclerotiorum, Pythium aphanidermatum, Rhizoctonia solani, Cercospora arachidicola, and Mycosphaerella fijiensis mycelia (0.4 g mycelia) were blended for 45 seconds in 20 mL sterile de-ionized water. Monilinia laxa mycelia (1 g mycelia) was blended for 45 seconds in 30 mL of sterile de-ionized water. Botrytis cinerea spores were diluted with quarter strength PDB to 1×10^5 spores/mL final well concentration. All mycelia were diluted in water (1:5 mycelia:water) before distributing into the wells. Microtiter plate preparation: Compound solution (10 :L), quarter strength PDB (900 :L) and fungi preparation (100 :L) were sequentially distributed into 48-well microtiter plates (n=3 replications/compound/rate). A blank consisted of quarter strength PDB and fungi preparation. […] Final readings were the average of the three wells (Table 1).

For another data set, the system named is Sclerotinia sclerotiorum. The experiment in a line: Contact evaluation (microtiter plate), Sclerotinia sclerotiorum. The class given is cell-based. The settings on record: Sclerotinia scierotionum. The procedure:
as §1

Data set [3] concerns Botrytis cinerea. The experiment in a line: Contact evaluation (microtiter plate), Botrytis cinerea. The class given is cell-based. The procedure: as §1
A further data set has as its system Pythium aphanidermatum. Briefly: Contact evaluation (microtiter plate), Pythium aphanidermatum. The class given is cell-based. The procedure:
as §1

A further data set deals with Monilinia laxa. The experiment in a line: Contact evaluation (microtiter plate), Monilinia laxa. The class given is cell-based. The procedure: as §1
For the next data set, the system named is Rhizoctonia solani. Briefly: Contact evaluation (microtiter plate), Rhizoctonia solani. The class given is cell-based. The settings on record: Rhizoctinia solani. The procedure:
as §1

For the next data set, the system named is Cercospora arachidicola. Briefly: Contact evaluation (microtiter plate), Cercospora arachidicola. In kind it is cell-based. The procedure:
as §1

`COc1ccc(C2(OC)c3ccccc3N(c3ccccc3)c3ccccc32)cc1` [formula I, 9-phenyl-10-methoxy-10-(4-methoxyphenyl)-9,10-dihydroacridine]: the “Phytotoxity (200 ppm)” value in data set [1] is “Slight”. Further, the “Botrytis cinerea control (200 ppm)” value in the data set on Botrytis cinerea [2] is 80%. Further, the “Control of fungi (full, partial, none)” value is listed as “None” with Mycosphaerella fijiensis (fungicide rate 2 ppm); “Partial” in the data set with Mycosphaerella fijiensis (fungicide rate 10 ppm); “Full” in the data set on Mycosphaerella fijiensis (fungicide rate 20 ppm); “Partial” with Sclerotinia sclerotiorum (fungicide rate 2 ppm); “Full” in the data set on Sclerotinia sclerotiorum (fungicide rate 10 ppm); “Full” in the data set on Sclerotinia sclerotiorum (fungicide rate 20 ppm). Moreover, the “Control of fungi (full, partial, none)” value in the data set with Botrytis cinerea [3] (fungicide rate 2 ppm) was “Partial”; in the data set with Botrytis cinerea [3] (fungicide rate 10 ppm), “Full”; in the data set with Botrytis cinerea [3] (fungicide rate 20 ppm), “Full”; with Pythium aphanidermatum (fungicide rate 2 ppm) it was “Full”; in the data set with Pythium aphanidermatum (fungicide rate 10 ppm) it was “Full”; in the data set on Pythium aphanidermatum (fungicide rate 20 ppm), “Full”. Moreover, the “Control of fungi (full, partial, none)” value in the data set with Monilinia laxa (fungicide rate 2 ppm), in the data set on Monilinia laxa (fungicide rate 10 ppm), in the data set with Monilinia laxa (fungicide rate 20 ppm), with Rhizoctonia solani (fungicide rate 2 ppm), with Rhizoctonia solani (fungicide rate 10 ppm) and with Rhizoctonia solani (fungicide rate 20 ppm) was “Full” each time. Moreover, the entries for the “Control of fungi (full, partial, none)” value with Cercospora arachidicola (fungicide rate 2 ppm), in the data set with Cercospora arachidicola (fungicide rate 10 ppm) and with Cercospora arachidicola (fungicide rate 20 ppm) were “None”, “Full” and “Full”, respectively.
